From ChEMBL document CHEMBL5625183, “Discovery of a novel dual-target inhibitor of CDK12 and PARP1 that induces synthetic lethality for treatment of triple-negative breast cancer” (Eur J Med Chem, 2023) come the findings set out here.

pIC50: −log10 of the molar value.

One test has as its system MDA-MB-468. In words: Antiproliferative activity against human MDA-MB-468 cells assessed as inhibition of cell growth incubated for 24 hrs by MTT assay. It is filed as functional, cell-based. The note with it: MDA-MB-468, 24 h.
The target of test [1] is Cyclin-dependent kinase 12 (Homo sapiens, UniProt Q9NYV4). As to the kind of experiment: Inhibition of CDK12 (unknown origin) at 1 uM in presence of ATP by kinase-glo plus luminescent assay relative to control.
Another test relates to MDA-MB-231. As to the kind of experiment: Antiproliferative activity against human MDA-MB-231 cells assessed as inhibition of cell growth incubated for 24 hrs by MTT assay. It is filed as functional, cell-based. The note with it: MDA-MB-231, 24 h. Background: Tetrazolium assays rely on reduction of a dye to a coloured formazan, in cell work by metabolically active cells.
The subject of the next test is MDA-MB-436. In words: Antiproliferative activity against human MDA-MB-436 cells assessed as inhibition of cell growth incubated for 24 hrs by MTT assay. It is filed as functional, cell-based. The note with it: Homo sapiens, MDA-MB-436, 24 h.

Chain of Cyclin-dependent kinase 12 (Q9NYV4 whole entry, looked up): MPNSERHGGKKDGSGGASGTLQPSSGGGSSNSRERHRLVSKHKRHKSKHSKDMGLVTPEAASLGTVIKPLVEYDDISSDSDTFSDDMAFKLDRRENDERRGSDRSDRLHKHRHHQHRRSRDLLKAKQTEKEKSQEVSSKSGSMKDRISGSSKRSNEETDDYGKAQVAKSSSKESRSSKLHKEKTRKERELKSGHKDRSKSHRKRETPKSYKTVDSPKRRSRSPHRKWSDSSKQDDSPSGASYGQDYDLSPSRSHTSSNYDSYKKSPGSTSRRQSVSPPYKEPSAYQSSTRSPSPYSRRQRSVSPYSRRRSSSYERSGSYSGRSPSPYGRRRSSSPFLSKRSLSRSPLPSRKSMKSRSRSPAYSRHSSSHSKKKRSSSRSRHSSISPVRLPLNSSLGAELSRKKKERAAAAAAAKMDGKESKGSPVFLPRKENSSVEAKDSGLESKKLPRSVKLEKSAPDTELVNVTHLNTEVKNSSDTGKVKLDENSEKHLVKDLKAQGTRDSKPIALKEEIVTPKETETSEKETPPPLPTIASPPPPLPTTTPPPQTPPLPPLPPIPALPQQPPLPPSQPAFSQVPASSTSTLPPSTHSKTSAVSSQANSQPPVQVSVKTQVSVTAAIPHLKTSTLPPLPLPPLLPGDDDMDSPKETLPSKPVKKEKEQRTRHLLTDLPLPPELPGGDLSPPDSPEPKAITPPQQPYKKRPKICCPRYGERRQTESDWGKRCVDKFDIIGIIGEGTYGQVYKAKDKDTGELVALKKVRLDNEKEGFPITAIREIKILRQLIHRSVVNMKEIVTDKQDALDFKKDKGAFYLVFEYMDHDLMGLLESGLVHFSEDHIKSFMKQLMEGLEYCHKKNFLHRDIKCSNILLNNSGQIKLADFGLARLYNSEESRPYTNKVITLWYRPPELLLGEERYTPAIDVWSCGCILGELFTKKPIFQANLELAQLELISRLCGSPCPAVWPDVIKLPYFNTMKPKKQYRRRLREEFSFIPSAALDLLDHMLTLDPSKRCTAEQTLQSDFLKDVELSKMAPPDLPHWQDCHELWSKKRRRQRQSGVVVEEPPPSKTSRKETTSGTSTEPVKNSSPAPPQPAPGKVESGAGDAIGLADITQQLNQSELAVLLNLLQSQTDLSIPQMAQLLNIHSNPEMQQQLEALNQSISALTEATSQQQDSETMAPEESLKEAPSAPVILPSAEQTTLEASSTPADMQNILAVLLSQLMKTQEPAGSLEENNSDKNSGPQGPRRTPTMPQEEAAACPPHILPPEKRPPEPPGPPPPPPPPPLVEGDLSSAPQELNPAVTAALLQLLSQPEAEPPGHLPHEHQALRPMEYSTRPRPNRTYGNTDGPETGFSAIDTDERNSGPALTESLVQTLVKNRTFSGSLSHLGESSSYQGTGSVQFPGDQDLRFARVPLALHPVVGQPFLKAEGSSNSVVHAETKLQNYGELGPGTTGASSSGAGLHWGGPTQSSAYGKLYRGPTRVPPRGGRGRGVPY

The term pIC50 denotes the IC50 on a negative log10 scale, so that one unit is a factor of ten. What is called inhibition is the change of the read-out against control, counted positive when it falls. Turning to `NC(=O)c1cccc2[nH]c(NC(=O)c3cccc(C(=O)N4CCC(Nc5ccc(Br)cn5)CC4)c3)nc12`, the pIC50 with MDA-MB-468, in the test on MDA-MB-231 and in the test with MDA-MB-436 was less than 4.52 throughout. Further, the inhibition in test [1] amounted to 25.6%.
Regarding `NC(=O)c1cccc2[nH]c(NC(=O)c3cccc(C(=O)N4CCN(c5ncc(F)cn5)CC4)c3)nc12`, the pIC50 with MDA-MB-468, in the test with MDA-MB-231 and in the test with MDA-MB-436 was less than 4.52 in each case. In addition, the inhibition in test [1] is 31.6%.
Consider `N#Cc1cnc(N2CCN(C(=O)c3cccc(C(=O)Nc4nc5c(C(N)=O)cccc5[nH]4)c3)CC2)nc1`, for which the pIC50 in the test on MDA-MB-468, in the test with MDA-MB-231 and in the test with MDA-MB-436 was less than 4.52 in each case. Further, the inhibition in test [1] worked out at 32.6%.
For the molecule `NC(=O)c1cccc2[nH]c(NC(=O)c3cccc(C(=O)N4CCC(Nc5ncc([N+](=O)[O-])cn5)CC4)c3)nc12`, the pIC50 with MDA-MB-468, in the test on MDA-MB-231 and with MDA-MB-436 was less than 4.52 in each case. Also, in test [1], the inhibition turned out to be 5.4%.
`NC(=O)c1cccc2[nH]c(NC(=O)c3ccc(C(=O)N4CCN(c5ncc(Br)cn5)CC4)cc3)nc12`: the pIC50 in the test on MDA-MB-468 was 4.60; in the test with MDA-MB-231, 4.62; in the test on MDA-MB-436, 4.63. The inhibition in test [1] turned out to be 41.6%.
In the same order, the values of `Cc1cnc(NC2CCN(C(=O)c3cccc(C(=O)Nc4nc5c(C(N)=O)cccc5[nH]4)c3)CC2)nc1` are less than 4.52, less than 4.52, less than 4.52 and 1.3%.
In the same order, the values of `N#Cc1cnc(NC2CCN(C(=O)c3ccc(C(=O)Nc4nc5c(C(N)=O)cccc5[nH]4)cc3)CC2)nc1` are less than 4.52, less than 4.52, less than 4.52 and 27.5%.
In the same order, the values of `NC(=O)c1cccc2[nH]c(NC(=O)c3ccc(C(=O)N4CCC(Nc5ncc(Cl)cn5)CC4)cc3)nc12` are 4.63, 4.60, 4.68 and 50.7%.
`NC(=O)c1cccc2[nH]c(NC(=O)c3ccc(C(=O)N4CCC(Nc5ncc(Br)cn5)CC4)cc3)nc12`: the pIC50 in the test with MDA-MB-468 was 4.67; in the test on MDA-MB-231 it was 4.71; in the test with MDA-MB-436 it was 4.76. For the same molecule, the inhibition in test [1] was 55.4%.
For `NC(=O)c1cccc2[nH]c(NC(=O)c3ccc(C(=O)N4CCC(Nc5ccc(C(F)(F)F)cn5)CC4)cc3)nc12`, in that order: less than 4.52, less than 4.52, less than 4.52 and 26.7%.
On to `NC(=O)c1cccc2[nH]c(NC(=O)c3cccc(C(=O)N4CCC(Nc5ncccn5)CC4)c3)nc12`, for which the pIC50 in the test with MDA-MB-468, in the test with MDA-MB-231 and in the test with MDA-MB-436 was less than 4.52 throughout. In addition, the inhibition in test [1] worked out at 25%.
As for `NC(=O)c1cccc2[nH]c(NC(=O)c3ccc(C(=O)N4CCC(Nc5ncc(C(F)(F)F)cn5)CC4)cc3)nc12`, the pIC50 in the test with MDA-MB-468 is 4.60; in the test with MDA-MB-231 it was 4.64; in the test with MDA-MB-436, 4.63. The inhibition in test [1] was found to be 54.6%.
For `NC(=O)c1cccc2[nH]c(NC(=O)c3ccc(CN4CCC(Nc5ncc(Br)cn5)CC4)cc3)nc12`, in that order: 4.59, 4.58, 4.62 and 45.4%.
In the same order, the values of `COc1cnc(NC2CCN(C(=O)c3cccc(C(=O)Nc4nc5c(C(N)=O)cccc5[nH]4)c3)CC2)nc1` are 4.55, 4.60, 4.64 and 36.4%.
In the same order, the values of `NC(=O)c1cccc2[nH]c(NC(=O)c3ccc(CN4CCC(Nc5ncc(Cl)cn5)CC4)cc3)nc12` are less than 4.52, 4.57, 4.59 and 43.1%.
As to `NC(=O)c1cccc2[nH]c(NC(=O)c3cccc(C(=O)N4CCN(c5ncc(Cl)cn5)CC4)c3)nc12`, the pIC50 is 4.62 in the test on MDA-MB-468, 4.60 in the test with MDA-MB-231 and less than 4.52 in the test on MDA-MB-436. Also, in test [1], the inhibition was 44.1%.
In the same order, the values of `NC(=O)c1cccc2[nH]c(NC(=O)c3ccc(C(=O)N4CCC(Nc5ncc([N+](=O)[O-])cn5)CC4)cc3)nc12` are less than 4.52, less than 4.52, less than 4.52 and 24.1%.
Consider `NC(=O)c1cccc2[nH]c(NC(=O)c3ccc(S(=O)(=O)N4CCC(Nc5ncc(C(F)(F)F)cn5)CC4)cc3)nc12`, for which the pIC50 with MDA-MB-468 is 4.60; in the test with MDA-MB-231, 4.57; in the test on MDA-MB-436 it was 4.57. For the same molecule, the inhibition in test [1] turned out to be 69.9%.
For the molecule `N#Cc1cnc(NC2CCN(C(=O)c3cccc(C(=O)Nc4nc5c(C(N)=O)cccc5[nH]4)c3)CC2)nc1`, the pIC50 in the test on MDA-MB-468, in the test on MDA-MB-231 and in the test with MDA-MB-436 was less than 4.52 each time. Further, the inhibition in test [1] stood at 21.7%.
For the molecule `COc1cnc(NC2CCN(C(=O)c3ccc(C(=O)Nc4nc5c(C(N)=O)cccc5[nH]4)cc3)CC2)nc1`, the pIC50 was 4.54 in the test with MDA-MB-468, 4.56 in the test on MDA-MB-231 and 4.59 in the test on MDA-MB-436. In addition, the inhibition in test [1] was 31.5%.
For `Cc1cnc(NC2CCN(C(=O)c3ccc(C(=O)Nc4nc5c(C(N)=O)cccc5[nH]4)cc3)CC2)nc1`, in that order: 4.56, 4.59, 4.64 and 35.6%.
In the same order, the values of `NC(=O)c1cccc2[nH]c(NC(=O)c3ccc(S(=O)(=O)N4CCC(Nc5ncc(Br)cn5)CC4)cc3)nc12` are 4.61, 4.58, less than 4.52 and 77.6%.
For `NC(=O)c1cccc2[nH]c(NC(=O)c3cccc(C(=O)N4CCC(Nc5ccc(I)cn5)CC4)c3)nc12`, in that order: less than 4.52, less than 4.52, less than 4.52 and 30.1%.
As for `NC(=O)c1cccc2[nH]c(NC(=O)c3ccc(CN4CCC(Nc5ncc(I)cn5)CC4)cc3)nc12`, the pIC50 with MDA-MB-468 was 4.56; with MDA-MB-231 it was less than 4.52; in the test with MDA-MB-436, 4.54. Besides, the inhibition in test [1] turned out to be 40.8%.
For `CCc1cnc(NC2CCN(C(=O)c3cccc(C(=O)Nc4nc5c(C(N)=O)cccc5[nH]4)c3)CC2)nc1`, in that order: 4.64, 4.62, 4.67 and 48.7%.
Take `N#Cc1cnc(N2CCN(C(=O)c3ccc(C(=O)Nc4nc5c(C(N)=O)cccc5[nH]4)cc3)CC2)nc1`: the pIC50 with MDA-MB-468, with MDA-MB-231 and in the test with MDA-MB-436 was less than 4.52 throughout. Also, the inhibition in test [1] is 28.5%.
In the case of `NC(=O)c1cccc2[nH]c(NC(=O)c3ccc(C(=O)N4CCC(Nc5nccc(C(F)(F)F)n5)CC4)cc3)nc12`, the pIC50 with MDA-MB-468, in the test on MDA-MB-231 and in the test with MDA-MB-436 was less than 4.52 each time. Moreover, the inhibition in test [1] was 16.8%.
`NC(=O)c1cccc2[nH]c(NC(=O)c3ccc(C(=O)N4CCN(c5ccc(C(F)(F)F)cn5)CC4)cc3)nc12`: the pIC50 in the test with MDA-MB-468 is 4.56; with MDA-MB-231, 4.57; with MDA-MB-436, 4.59. Besides, in test [1], the inhibition is 39.8%.
For `NC(=O)c1cccc2[nH]c(NC(=O)c3ccc(C(=O)N4CCC(Nc5ccc(I)cn5)CC4)cc3)nc12`, in that order: less than 4.52, less than 4.52, less than 4.52 and 29.8%.
In the same order, the values of `NC(=O)c1cccc2[nH]c(NC(=O)c3ccc(C(=O)N4CCC(Nc5ncc(F)cn5)CC4)cc3)nc12` are 4.58, 4.54, 4.61 and 38.8%.
For `NC(=O)c1cccc2[nH]c(NC(=O)c3cccc(C(=O)N4CCN(c5ncc(C(F)(F)F)cn5)CC4)c3)nc12`, in that order: 4.71, 4.72, 4.75 and 52.1%.
With `NC(=O)c1cccc2[nH]c(NC(=O)c3cccc(C(=O)N4CCN(c5ncc(Br)cn5)CC4)c3)nc12`, the pIC50 with MDA-MB-468 is 4.63; in the test on MDA-MB-231, 4.61; with MDA-MB-436 it was 4.66. Further, the inhibition in test [1] is 46.2%.
In the same order, the values of `NC(=O)c1cccc2[nH]c(NC(=O)c3ccc(C(=O)N4CCC(Nc5ncccn5)CC4)cc3)nc12` are 4.54, 4.52, 4.60 and 32.4%.
For `N#Cc1ccc(NC2CCN(C(=O)c3ccc(C(=O)Nc4nc5c(C(N)=O)cccc5[nH]4)cc3)CC2)nc1`, in that order: less than 4.52, less than 4.52, less than 4.52 and 13.3%.
In the same order, the values of `NC(=O)c1cccc2[nH]c(NC(=O)c3ccc(C(=O)N4CCN(c5ncc(F)cn5)CC4)cc3)nc12` are less than 4.52, less than 4.52, less than 4.52 and 19.8%.
`NC(=O)c1cccc2[nH]c(NC(=O)c3ccc(C(=O)N4CCN(c5ncc(I)cn5)CC4)cc3)nc12`: the pIC50 in the test with MDA-MB-468 is 4.58; in the test with MDA-MB-231 it was 4.59; with MDA-MB-436, 4.64. For the same molecule, the inhibition in test [1] was 45.2%.
For `NC(=O)c1cccc2[nH]c(NC(=O)c3ccc(C(=O)N4CCN(c5ncc(Cl)cn5)CC4)cc3)nc12`, in that order: 4.56, 4.55, 4.56 and 37.4%.
For `NC(=O)c1cccc2[nH]c(NC(=O)c3ccc(C(=O)N4CCN(c5ncc(C(F)(F)F)cn5)CC4)cc3)nc12`, in that order: 4.62, 4.62, 4.62 and 43%.
